Reference: ChEMBL document CHEMBL5113389, “Topoisomerase I inhibitors: Challenges, progress and the road ahead” (Eur J Med Chem, 2022)

Key:
[1] = biological target: T1, DNA topoisomerase 1 (Homo sapiens) (UniProt P11387); assay: Inhibition of Top1 in [3H]-Thymidine-labeled human MCF7 cells assessed as Top1-DNA complex formation at 30 uM incubated for 60 mins followed by addition of salmon sperm DNA and subsequent addition of KCl relative to control; format: cell-based
T1 sequence (whole entry): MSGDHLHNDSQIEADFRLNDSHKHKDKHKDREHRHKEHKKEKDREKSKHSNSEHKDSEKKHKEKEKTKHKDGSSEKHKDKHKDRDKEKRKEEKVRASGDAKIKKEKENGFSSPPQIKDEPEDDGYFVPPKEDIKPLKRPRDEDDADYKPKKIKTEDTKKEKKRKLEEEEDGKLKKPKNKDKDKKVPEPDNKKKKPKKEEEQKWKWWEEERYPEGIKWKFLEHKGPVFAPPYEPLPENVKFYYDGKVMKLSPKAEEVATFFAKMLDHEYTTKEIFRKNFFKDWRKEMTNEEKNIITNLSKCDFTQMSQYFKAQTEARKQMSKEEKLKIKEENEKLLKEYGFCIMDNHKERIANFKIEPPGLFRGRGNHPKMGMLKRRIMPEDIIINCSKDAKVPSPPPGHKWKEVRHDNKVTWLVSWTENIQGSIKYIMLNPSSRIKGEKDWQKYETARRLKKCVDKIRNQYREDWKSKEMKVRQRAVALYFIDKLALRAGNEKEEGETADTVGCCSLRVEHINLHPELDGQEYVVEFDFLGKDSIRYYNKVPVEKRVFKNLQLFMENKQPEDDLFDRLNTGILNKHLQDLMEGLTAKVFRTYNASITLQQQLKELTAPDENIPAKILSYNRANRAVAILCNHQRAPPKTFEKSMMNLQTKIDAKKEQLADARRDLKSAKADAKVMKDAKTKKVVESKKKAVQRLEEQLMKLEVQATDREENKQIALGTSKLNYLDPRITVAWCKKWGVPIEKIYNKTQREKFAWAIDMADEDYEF

[2] = biological target: T1, DNA topoisomerase 1 (Homo sapiens); assay: Inhibition of full-length recombinant human Top1 expressed in baculovirus infected Sf9 insect cells at 5 uM incubated for 30 mins relative to control
RPMI 8402 = assay: Cytotoxicity against human RPMI 8402 cells assessed as cell growth inhibition measured after 4 days by MTT assay; format: functional, cell-based; conditions: RPMI 8402, 96 h
[3] = biological target: T1, DNA topoisomerase 1 (Homo sapiens); assay: Inhibition of human Top1 expressed in Escherichia coli assessed as enzyme-mediated DNA cleavage by measuring relative effective concentration incubated for 30 mins relative to topotecan
[4] = Cytotoxicity against human U-937/CR cells assessed as cell growth inhibition incubated for 3 to 4 days by MTT assay; format: functional, cell-based
P388 [5] = assay: Cytotoxicity against mouse P388 cells assessed as cell growth inhibition incubated for 3 to 4 days by MTT assay; format: functional, cell-based
P388CPT45 = assay: Cytotoxicity against mouse P388CPT45 cells assessed as cell growth inhibition incubated for 3 to 4 days by MTT assay; format: functional, cell-based
U-937 = assay: Cytotoxicity against human U-937 cells assessed as cell growth inhibition incubated for 3 to 4 days by MTT assay; format: functional, cell-based
K5 = assay: Cytotoxicity against human camptothecin-resistant K5 cells assessed as cell growth inhibition measured after 4 days by MTT assay; format: functional, cell-based; conditions: K5, 96 h
HCT-116 [6] = assay: Cytotoxicity against human HCT-116 cells assessed as cell growth inhibition incubated for 3 days by SRB assay; format: functional, cell-based; conditions: HCT-116, 72 h
MCF7 = assay: Cytotoxicity against human MCF7 cells assessed as cell growth inhibition incubated for 3 days by SRB assay; format: functional, cell-based; conditions: MCF7, 72 h
HCT-116 [7] = assay: Cytotoxicity against human HCT-116 cells assessed as cell growth inhibition measured after 4 days by MTT assay; format: functional, cell-based; conditions: HCT-116, 96 h
CCRF-CEM = assay: Cytotoxicity against human CEM cells assessed as cell growth inhibition; format: functional, cell-based
P388 [8] = assay: Cytotoxicity against mouse P388 cells assessed as cell growth inhibition; format: functional, cell-based
HCT-116 [9] = assay: Cytotoxicity against human HCT-116 cells assessed as cell growth inhibition incubated for 72 hrs by MTT assay; format: functional, cell-based; conditions: HCT-116, 72 h
K562 = assay: Cytotoxicity against human K562 cells assessed as cell growth inhibition incubated for 72 hrs by MTT assay; format: functional, cell-based; conditions: K562, 72 h

CN1c2ccccc2C(=O)N2CCc3c([nH]c4ccccc34)C21 (stereo not given)
inhibition [1]: 24.2%

O=c1c2ccccc2nc2n1Cc1cc3c(Br)cccc3nc1-2
inhibition [2]: 54%

COc1cc2c(=O)n(CCN(C)C)c3c4cc([N+](=O)[O-])ccc4ncc3c2cc1OC
IC50 (RPMI 8402): 18 nM

CN(C)CCn1c(=O)c2cc([N+](=O)[O-])ccc2c2cnc3cc4c(cc3c21)OCO4
Ratio [3]: 0.1 | IC50 (RPMI 8402): 2 nM

COc1cc2ccc3c4cc5c(cc4ncc3c2cc1OC)OCO5
IC50 [4]: 50 nM | IC50 (P388 [5]): 190 nM | IC50 (P388CPT45): 180 nM | IC50 (U-937): 40 nM

O=c1c2ccccc2nc2n1Cc1cc3ccccc3nc1-2
inhibition [2]: 18%

COc1cc2c(=O)n(CCN(C)C)c3c4cc(N)ccc4ncc3c2cc1OC
IC50 (RPMI 8402): 40 nM

COc1cc2c(=O)n(CCN(C)C)c3c4ccc(N)cc4ncc3c2cc1OC
IC50 (RPMI 8402): 100 nM

COc1cc2ncc3c4cc5c(cc4ccc3c2cc1OC)OCO5
IC50 (K5): 10800 nM | IC50 (RPMI 8402): 4500 nM

CC[C@@]1(O)C(=O)Cc2c1cc1n(c2=O)Cc2c-1nc1cc3c(cc1c2C1CCC1)OCO3
IC50 (HCT-116 [6]): 6 nM | IC50 (MCF7): 3 nM

CN(C)CCn1c(=O)c2ccc([N+](=O)[O-])cc2c2cnc3cc4c(cc3c21)OCO4
IC50 (RPMI 8402): 3 nM

O=c1c2ccccc2nc2n1Cc1cc3c(Cl)cccc3nc1-2
inhibition [2]: 48%

COc1cc2c(=O)n(CCN(C)C)c3c4ccc([N+](=O)[O-])cc4ncc3c2cc1OC
IC50 (RPMI 8402): 75 nM

COc1ccc2c(ccc3c4cc5c(cc4nnc23)OCO5)c1
IC50 (HCT-116 [7]): 40 nM | IC50 (RPMI 8402): 70 nM

COc1cc(-c2c3c4cc(OC)c(O)cc4oc(=O)c3n3ccc4cc(O)c(OC)cc4c23)ccc1O [LAMELLARIN D]
IC50 (CCRF-CEM): 14 nM | IC50 (P388 [8]): 136 nM

O=c1c2ccccc2nc2n1Cc1c-2nc2ccccc2c1C(F)(F)F
IC50 (HCT-116 [9]): 17000 nM | IC50 (K562): 21000 nM
